Patent US20030044875A1, “Substrate for PP2C” (Schering AG, priority 2001, published 2003)
Entries after “also recorded” stand apart in the source; their conditions may differ.

Legend:
PP2Cβ = molecular target: T1, PP2Cβ (Bos taurus, UniProt O62830); assay: Dephosphorylation of phospho-BAD by PP2Cβ, Mg2+-dependence; type: biochemical, bovine
T1 construct: inferred from the Ni-NTA purification; made in house; host or cells: E. coli
T1 sequence (O62830 1-484): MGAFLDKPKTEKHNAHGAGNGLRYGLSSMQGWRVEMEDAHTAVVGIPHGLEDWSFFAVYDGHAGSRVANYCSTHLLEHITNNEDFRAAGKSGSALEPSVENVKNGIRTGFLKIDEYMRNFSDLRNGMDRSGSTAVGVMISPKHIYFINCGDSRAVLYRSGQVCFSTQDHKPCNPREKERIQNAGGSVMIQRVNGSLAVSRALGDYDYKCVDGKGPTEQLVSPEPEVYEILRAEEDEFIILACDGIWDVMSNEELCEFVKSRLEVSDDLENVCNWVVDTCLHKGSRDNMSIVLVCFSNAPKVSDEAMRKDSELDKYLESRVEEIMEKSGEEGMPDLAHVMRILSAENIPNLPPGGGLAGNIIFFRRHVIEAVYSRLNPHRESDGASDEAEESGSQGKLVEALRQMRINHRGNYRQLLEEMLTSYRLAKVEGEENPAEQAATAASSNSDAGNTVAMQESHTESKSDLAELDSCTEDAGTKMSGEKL
Method: Dephosphorylation of phospho-BAD by PP2C is assayed in vitro using recombinant BAD (Lizcano, J. M., Morrice, N. and Cohen, P. (2000) Regulation of Bad by cAMP-dependent protein kinase is mediated via phosphorylation of a novel site, Ser^155. Biochem. J. Vol: 349, 547-557) kindly provided by Sir Philip Cohen, Dundee, UK. cDNA encoding PP2Cβ from bovine brain was expressed in E. Coli and purified using Ni-NTA-Sepharose. (J. Neurosci. Res. 51, 328-338 (1998) Protein phosphatase type-2C isozymes present in vertebrate retinae: purification, characterization, and localization in photoreceptors.)
Incubations were carried out for 30 min at 37° C. The reaction mixture (12 μl) contained 12 μg BAD (GST-fusion protein) (Lizcano et al. (2000) Biochem. J. 349, 547-557), 0.55 μg PKA (Sigma), 1 μM ATP, 15 μCi [γ-^32P]ATP, 5 mM MgCl2 and 25 mM Tris/HCl pH 7.5. After incubation at 37° C. for 30 min, hot and cold ATP were removed by centrisep centrifugation columns. […]
Dephosphorylation of [^32P]BAD depends on the time of incubating PP2Cβ together with the substrate phospho-BAD which is cleaved to give phosphate and BAD. The concentration of [^32P]BAD is measured in this assay, therefore intensive spots on the X-ray sensitive film represent high concentrations of [^32P]BAD, in other words low activity of the enzyme PP2Cβ.

PP2C = conditions: cited from earlier work

Row | Structure (SMILES) | Effect of Mg2+ ions on enzymatic activity of PP2C (dephosphorylation of BAD) (PP2Cβ) | Sensitivity of PP2C activity to inhibitor (PP2C)
1 | [Mg+2] [Mg^2+] | requires the presence of Mg^2+-ions; also recorded: increases the enzymatic activity | 
2 | C=C1[C@@H](O)[C@@H]2O[C@]3(CC[C@H](/C=C/[C@@H](C)[C@@H]4CC(C)=C[C@@]5(O[C@H](C[C@@](C)(O)C(=O)O)CC[C@H]5O)O4)O3)CC[C@H]2O[C@@H]1[C@@H](O)C[C@H](C)[C@H]1O[C@@]2(CCCCO2)CC[C@H]1C [okadaic acid] |  | not sensitive
